{
  "source": "patent US20250089709A1",
  "about": "“CALCIUM PHOSPHATE NANOPARTICLES LOADED WITH JASMONATE TO INDUCE EFFICIENT PLANT DEFENCE RESPONSES” (UNIVERSIDAD DE GRANADA, priority 2021, published 2025)",
  "key": {"Monastrell grapevine": {"tested_on": "Monastrell grapevine", "conditions": "cited from earlier work"}, "[1]": {"tested_on": "Monastrell (Vitis vinifera L.) grapevines", "test": "In vivo field experiments on vineyards, stilbene analysis in wines", "conditions": "for total stilbene concentration in wines: two applications", "method": "The experiments were conducted in a randomized block design, in which five treatments were applied to three replicates, using 10 vines for each replication. Monastrell (Vitis vinifera L.) grapevines from experimental vineyards located in Cehegin (Murcia, Spain): were sprayed with five treatments, in order to evaluate nano-MeJ efficiency in the field. […] 200 mL of the product was foliarly applied to each plant at veraison. A second application was performed after 7 days. Then, when grapes reached their optimal maturity they were harvested and transported to the winery for winemaking. Vinifications were made in triplicate in 50-L stainless steel tanks using 50 kg of grapes, which were destemmed, crushed, and sulfited (8 g SO2/100 kg). Total acidity was corrected to 5.5 g/L with tartaric acid, and selected yeasts were added (Uvaferm VRB, Lallemand, 25 g/hL). The fermentative pomace contact period was 10 days during which the cap was punched down twice a day, and the temperature and must density were recorded. At the end of alcoholic fermentation, wines were pressed at 1.5 bars in a 75 L tank membrane press and packed in bag-in-box for further analysis.\nThe extraction method used was described by Guerrero et al. with some modifications. Briefly, 5 mL of wine were extracted with 5 mL of diethyl ether to which 25 μL of internal standard (Trans-4-Hydroxistilbene, 98%) were added. Samples were homogeneized with an Ultraturrax T-25 (Jankel Adnand Kunkel, IKA-Labortechnick, Germany) and stirred at 9600 rpm for 1 minute. […]\nStilbenes were identified and quantified by HPLC. Samples were analysed using a Waters2695 system equipped with a mass detector (Acquity QDA Waters). […] Stilbenes were quantified at 320 nm using trans-resveratrol, trans-piceid, piceatannol and ε-viniferin as external standards.\n(§1) Statistical comparisons were analysed with GraphPad Prism software (version 6.0) using one-way or two-way ANOVA and Bonferroni's post hoc test. […] The half inhibitory concentrations (IC50) were calculated by the Graph Pad Prism, using the dose-response sigmoidal curves, p<0.05."}, "B16-F10 cell line [2]": {"tested_on": "B16-F10 cell line", "test": "In vitro cytotoxicity assay (MTS)", "format": "cell-based", "conditions": "Mus musculus, 48 h, B16-F10 cells, 2 days incubation, read-out: IC50 (half inhibitory concentration, cell viability)", "method": "Mouse skin melanoma (B16-F10, ATCC CRL-6322) cell line was purchased from the Cell Bank of CIC-UGR. B16-F10 cells were expanded in Eagle's minimum essential medium (EMEM) with Earle's balanced salt solution (EBSS) supplemented with 2 mM glutamine, and 10% foetal bovine serum (FBS), 1% nonessential amino acids (NEAA) and 1 mM sodium pyruvate (NaP) at 37° C. in a humidified atmosphere of 5% CO2.\nCells were detached from culture flasks by trypsinization, centrifuged and resuspended. Cell number and viability were assessed with the trypan-blue dye exclusion test. Then, 1.0·10^4 cells/well were seeded in a 96 flat transparent well and incubated at 37° C. in a humidified atmosphere of 5% CO2. […] After 2 days incubation, cell viability was evaluated by MTS assay using CellTiter 96® AQueous One Solution Reagent (Promega, Madison, WI) according to the manufacturer's instructions. Briefly, 20 μL of AQueous One Solution Reagent was added to each well and after 2 h of incubation, the absorbance at 490 nm was measured with a spectrophotometer (Infinite® 200 PRO NanoQuant, CIC-UGR). […] Each experiment was done in triplicate.\nas §1"}, "B16-F10 cell line [3]": {"tested_on": "B16-F10 cell line", "conditions": "read-out: MeJ needed to decrease cell viability in a half; same cell line (B16-F10), previous results; cited from earlier work"}, "[4]": {"test": "In vitro nano-MeJ protection assays (drops at 50° C., UV-Vis and Raman)", "format": "physicochemical", "conditions": "dried drops after 24 hours at 50° C.", "method": "Both of them were kept at 50° C. during 24 h. At scheduled times, the drops were observed using an iScope (Euromex) microscope, in bright field mode and under 40× objective. After 24 hours, the remained samples were analysed by Raman Spectroscopy (JASCO NRS-5100, Jasco International Co. Ltd, Japan) from CIC-UGR. The excitation line was provided by a diode laser emitting at a wavelength of 785 nm. The detector used is a Peltier cooled charge-couple device (CCD, 1024×256 pixels). Before the measurement, the Raman shift of the spectrometer was calibrated using the 520.7 cm-1 peak of crystalline silicon as standard. Each spectrum corresponds to the average of 3 acquisitions of 100 s each. The spectra were linearly base-line corrected for clarity. The same experiment was carried out by depositing on a crystallizer 30 drops of 100 μL of each sample to determine the ratio of protection. […] Then, the sample was centrifuged (12000 rpm, 10 minutes) to remove the nanoparticles before UV-Vis measurements. The ratio of protection (%) was calculated as MeJfinal/MeJinicial×100. Each test was performed in triplicates."}, "[5]": {"conditions": "cited from earlier work"}},
  "note": "Like-named read-outs stand apart in the source and are kept apart here.",
  "data": [
    {"smiles": "CC/C=C\\CC1C(=O)CCC1CC(=O)OC", "note": "(racemic) [MeJ, methyl jasmonate]", "values": [
      {"measurement": "total stilbenes in wines", "setting": "Monastrell grapevine; foliar application of 10 mM, vs non-treated (control) plants", "result": "significant increase"},
      {"measurement": "foliar concentration needed to promote stilbene production in grapes and wines", "setting": "Monastrell grapevine; previous field experiments", "result": 10, "unit": "mM"},
      {"measurement": "minimum concentration to observe important effects on stilbenes, elicitor conventionally applied", "setting": "[1]; foliar application", "result": 10, "unit": "mM"},
      {"measurement": "total stilbene concentration in wines", "setting": "[1]; foliar spray 5 mM MeJ (MeJ5) at veraison", "result": "not enough to produce the same enhancement in stilbene concentration"},
      {"measurement": "total stilbene concentration in wines", "setting": "[1]; foliar spray 10 mM MeJ (MeJ10) at veraison, vs non-treated control", "result": "significant (p<0.001) increase"},
      {"measurement": "IC50", "setting": "B16-F10 cell line [2]", "result": 2200, "unit": "µM"},
      {"measurement": "IC50", "setting": "B16-F10 cell line [3]", "result": 2600, "unit": "µM"},
      {"measurement": "Raman micro-analysis for MeJ signals", "setting": "[4]", "result": "did not show signals assignable to MeJ"},
      {"measurement": "solubility in water", "setting": "[5]", "result": 340, "unit": "µg/mL"}
    ]}
  ]
}
